# Test results as given in US8519123B2, “Pyrrolo[2,1-C][1,4]benzodiazepine linked imidazo[1,5-A]pyridine conjugates as potential antitumour agents and process for the preparation thereof” (Council of Scientific and Industrial Research, priority 2010, dated 2013).
# How the values were obtained:
# calf thymus DNA (CT-DNA) = test: Thermal denaturation studies with duplex-form calf thymus DNA (DNA binding affinity); details: [PBD]:[DNA] molar ratio 1:5, CT-DNA 100 μM, ligand 20 μM, sodium phosphate buffer pH 7.00; for (ΔTm ° C.) after incubation at 37° C. for 0 h: 0 h incubation at 37° C.; for (ΔTm ° C.) after incubation at 37° C. for 18 h: 18 h incubation at 37° C.
# Method: Compounds have been subjected to thermal denaturation studies with duplex-form calf thymus DNA (CT-DNA) using a modification of a reported procedure (Newman, M. S. Carcinog-compr. Surv. 1976, 1, 203; (b) Hecht, S. S.; Loy, M.; Hoffman, Carcinog-compr. Surv. 1976, 1, 325). Working solutions in aqueous buffer (10 mM NaH2PO4/Na2HPO4, 1 mM Na2EDTA, pH 7.00+0.01) containing CT-DNA (100 μm in phosphate) and the PBD (20 μm) have been prepared by addition of concentrated PBD solutions in DMSO to obtain a fixed [PBD]/[DNA] molar ratio of 1:5. The DNA-PBD solutions have been incubated at 37° C. for 0 and 18 h prior to analysis. Samples have been monitored at 260 nm using a Beckman DU-800 spectrophotometer fitted with high performance temperature controller, and heated at 1° C. min^−1 in the 40-110° C. range. DNA helix→coil transition temperatures (Tm) have been obtained from the maxima in the d(A260)/dT derivative plots. Drug-induced alterations in DNA melting behavior are given by: ΔTm=Tm(DNA+PBD)−Tm(DNA alone), where the Tm value for the PBD-free CT-DNA is 69.1±0.01.
# The DNA binding activity for these novel C8-linked imidazo[1,5-a]pyridine PBD hybrids has been examined by thermal denaturation studies using calf thymus (CT) DNA. […] The data for the compounds 7a-l is included in Table 1 for comparison.
# [1] = tested on: breast cancer cell line (MCF-7); test: In vitro cytotoxicity, MTT assay, 48 h continuous drug exposure; assay type: cell-based, human; details: 48 h exposure
# Method: (§1) In vitro biological activity studies were carried out at the pharmacology division, IICT, Hyderabad. The compounds were evaluated for in vitro anticancer activity against five tumour cell lines derived from five cancer types (breast, cervix, mouse melanoma, lung and liver cancer) as shown in Table 2. For each compound, dose response curves for each cell line were measured at a minimum of five concentrations at 10 fold dilutions. A protocol of 48 h continuous drug exposure was used and a MTT assay was used to estimate cell viability or growth. The concentration causing 50% inhibition (IC50) compared with the control was calculated. Compounds 7a-7l have been evaluated for their in vitro cytotoxicity in five cell lines from five human cancer types. The results are expressed as IC50 determined relative to that of untreated control cells (Table-2).
# [2] = tested on: cervical cancer cell line (Hela); test: as above; assay type: cell-based, human; details: Hela cells, 48 h exposure
# Method: as §1
# [3] = tested on: liver cancer cell line (Hepg2); test: as above; assay type: cell-based, human; details: Hepg2 cells, 48 h exposure
# Method: as §1
# [4] = tested on: lung cancer cell line (A549); test: as above; assay type: cell-based, human; details: A549 cells, 48 h exposure
# Method: as §1
# [5] = tested on: mouse melanoma cancer cell line (B16); test: as above; assay type: cell-based; details: B16 cells, 48 h exposure
# Method: as §1
# [6] = Homo sapiens, MCF7, MCF-7 cells
Compound,(ΔTm ° C.) after incubation at 37° C. for 0 h (calf thymus DNA (CT-DNA)) [°C],(ΔTm ° C.) after incubation at 37° C. for 18 h (calf thymus DNA (CT-DNA)) [°C],"IC50 [1, 6] [µM]","IC50 ([2]; Homo sapiens, HeLa, 48 h) [µM]","IC50 ([3]; Homo sapiens, HepG2, 48 h) [µM]",IC50 ([4]; Homo sapiens) [µM],IC50 ([5]; Mus musculus) [µM],IC50 ([2]; Homo sapiens) [µM],IC50 ([3]; Homo sapiens) [µM],IC50 [3] [µM],IC50 ([1]; MCF-7 cells) [µM],IC50 [2] [µM],IC50 [4] [µM],IC50 [5] [µM]
COc1cc2c(cc1OCCCCCCN1CCN(C(=O)c3nc(-c4ccccc4)n4ccccc34)CC1)N=C[C@@H]1CCCN1C2=O [7d],7.0,8.0,3.31,3.97,3.06,12.4,1.49,–,–,–,–,–,–,–
"COc1ccc(-c2nc(C(=O)N3CCNCC3)c3ccccn23)cc1 [4b, [3-(4-methoxyphenyl)imidazo[1,5-a]pyridin-1-yl](piperazino)methanone]",1.1,1.2,> 100,–,–,> 100,> 100,> 100,> 100,–,–,–,–,–
"O=C(c1nc(-c2ccc(C(F)(F)F)cc2)n2ccccc12)N1CCNCC1 [4c, piperazino3-[4-(trifluoromethyl)phenyl]imidazo[1,5-a]pyridin-1-ylmethanone]",0.1,0.4,> 100,–,–,> 100,> 100,> 100,> 100,–,–,–,–,–
COc1cc2c(cc1OCCCCCN1CCN(C(=O)c3nc(-c4ccccc4)n4ccccc34)CC1)N=C[C@@H]1CCCN1C2=O [7c],7.0,9.0,2.12,1.66,2.7,–,1.87,–,–,3.86,–,–,–,–
"COc1cc2c(cc1OCCCCN1CCN(C(=O)c3nc(-c4ccccc4)n4ccccc34)CC1)N=C[C@@H]1CCCN1C2=O [7b, (11aS)-7-methoxy-8-(4-4-[(3-phenylimidazo[1,5-a]pyridin-yl)carbonyl]piperazinobutoxy)-2,3,5,11a-tetrahydro-1H-benzo[e]pyrrolo[1,2-a]azepin-5-one]",6.0,8.9,2.87,1.24,2.83,15.9,2.67,–,–,–,–,–,–,–
"COc1cccc2c1C(=O)c1c(O)c3c(c(O)c1C2=O)C[C@@](O)(C(=O)CO)C[C@@H]3O[C@H]1C[C@H](N)[C@H](O)[C@H](C)O1 [ADR, adiramycin]",–,–,–,–,–,–,–,–,–,1.85,1.6,0.13,2.9,0.34
"O=C(c1nc(-c2ccccc2)n2ccccc12)N1CCNCC1 [4a, (3-phenylimidazo[1,5-a]pyridin-1-yl)(piperazino)methanone]",1.0,1.2,> 100,–,–,> 100,> 100,> 100,> 100,–,–,–,–,–
"C1=CC2=CN=c3ccccc3=CN2C1 [DC-81, pyrrolo[2,1-c][1,4]benzodiazepine]",0.3,0.7,2.19,2.14,2.2,0.38,1.83,–,–,–,–,–,–,–
"COc1cc2c(cc1OCCCN1CCN(C(=O)c3nc(-c4ccccc4)n4ccccc34)CC1)N=C[C@@H]1CCCN1C2=O [7a, (11aS)-7-methoxy-8-(3-4-[(3-phenylimidazo[1,5-a]pyridin-yl)carbonyl]piperazinopropoxy)-2,3,5,11a-tetrahydro-1H-benzo[e]pyrrolo[1,2-a]azepin-5-one]",6.0,8.9,1.2,2.1,2.7,7.1,2.8,–,–,–,–,–,–,–
